Measured values reported in article PMC12335474 (Communications Biology, 2025).

Key:
[1] = biological target: MLCK (myosin light chain kinase, smooth muscle) (Homo sapiens, UniProt Q15746, N1725A); assay: SPR; type: binding
[2] = biological target: MLCK (myosin light chain kinase, smooth muscle) (Homo sapiens, UniProt Q15746); assay: SPR; type: binding
MLCK (myosin light chain kinase, smooth muscle) (Homo sapiens, UniProt Q15746), sequence (Q15746 whole entry): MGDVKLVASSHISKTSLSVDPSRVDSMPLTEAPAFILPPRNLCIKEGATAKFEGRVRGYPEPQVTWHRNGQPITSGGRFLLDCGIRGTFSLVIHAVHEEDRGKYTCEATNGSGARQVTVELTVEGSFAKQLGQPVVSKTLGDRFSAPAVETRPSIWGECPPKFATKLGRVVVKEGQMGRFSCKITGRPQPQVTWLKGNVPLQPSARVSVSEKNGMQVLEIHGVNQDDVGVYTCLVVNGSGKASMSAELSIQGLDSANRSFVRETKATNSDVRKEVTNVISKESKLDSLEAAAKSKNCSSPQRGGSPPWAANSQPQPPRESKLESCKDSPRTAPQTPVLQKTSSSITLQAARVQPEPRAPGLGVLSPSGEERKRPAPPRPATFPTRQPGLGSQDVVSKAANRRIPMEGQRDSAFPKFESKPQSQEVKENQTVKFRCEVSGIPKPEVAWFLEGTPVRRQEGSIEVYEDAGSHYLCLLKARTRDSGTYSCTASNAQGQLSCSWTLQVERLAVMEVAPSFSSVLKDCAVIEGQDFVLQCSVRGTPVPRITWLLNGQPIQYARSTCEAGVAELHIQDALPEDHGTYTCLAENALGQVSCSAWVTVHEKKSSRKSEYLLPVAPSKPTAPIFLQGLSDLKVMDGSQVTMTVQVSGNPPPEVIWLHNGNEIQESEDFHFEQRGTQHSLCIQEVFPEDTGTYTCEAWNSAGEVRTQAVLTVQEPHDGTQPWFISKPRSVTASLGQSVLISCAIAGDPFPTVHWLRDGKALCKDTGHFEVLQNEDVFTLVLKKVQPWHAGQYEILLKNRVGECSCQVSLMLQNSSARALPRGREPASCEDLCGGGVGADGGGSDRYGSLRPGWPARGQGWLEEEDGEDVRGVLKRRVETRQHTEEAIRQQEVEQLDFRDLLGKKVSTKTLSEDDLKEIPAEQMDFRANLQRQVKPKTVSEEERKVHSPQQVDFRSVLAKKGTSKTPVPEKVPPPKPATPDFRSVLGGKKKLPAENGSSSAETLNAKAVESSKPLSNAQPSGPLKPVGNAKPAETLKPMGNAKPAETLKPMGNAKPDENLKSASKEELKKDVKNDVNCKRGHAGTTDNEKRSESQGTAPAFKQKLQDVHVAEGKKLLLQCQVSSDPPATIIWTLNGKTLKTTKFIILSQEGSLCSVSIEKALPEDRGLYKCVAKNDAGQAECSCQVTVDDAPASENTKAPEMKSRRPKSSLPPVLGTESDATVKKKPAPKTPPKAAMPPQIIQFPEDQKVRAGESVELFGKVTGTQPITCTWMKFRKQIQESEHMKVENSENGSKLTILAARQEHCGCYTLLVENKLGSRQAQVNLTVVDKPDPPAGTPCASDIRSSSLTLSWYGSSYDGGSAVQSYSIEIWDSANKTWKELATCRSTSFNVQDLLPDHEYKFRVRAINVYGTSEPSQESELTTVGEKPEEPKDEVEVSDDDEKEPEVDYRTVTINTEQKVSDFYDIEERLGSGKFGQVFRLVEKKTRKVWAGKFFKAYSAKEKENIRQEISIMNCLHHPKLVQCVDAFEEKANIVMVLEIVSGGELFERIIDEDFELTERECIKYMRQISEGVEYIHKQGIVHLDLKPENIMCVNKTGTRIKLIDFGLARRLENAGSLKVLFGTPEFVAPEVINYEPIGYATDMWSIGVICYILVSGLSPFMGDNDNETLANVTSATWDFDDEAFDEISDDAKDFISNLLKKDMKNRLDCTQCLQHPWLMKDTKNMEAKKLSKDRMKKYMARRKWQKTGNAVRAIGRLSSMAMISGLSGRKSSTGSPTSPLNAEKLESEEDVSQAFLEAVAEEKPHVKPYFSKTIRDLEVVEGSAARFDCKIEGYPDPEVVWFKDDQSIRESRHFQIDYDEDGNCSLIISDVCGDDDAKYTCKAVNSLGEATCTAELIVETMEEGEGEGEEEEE

MLCK (myosin light chain kinase, smooth muscle) (Homo sapiens, UniProt Q15746, N1725A), sequence (Q15746 923-1914 N1725A): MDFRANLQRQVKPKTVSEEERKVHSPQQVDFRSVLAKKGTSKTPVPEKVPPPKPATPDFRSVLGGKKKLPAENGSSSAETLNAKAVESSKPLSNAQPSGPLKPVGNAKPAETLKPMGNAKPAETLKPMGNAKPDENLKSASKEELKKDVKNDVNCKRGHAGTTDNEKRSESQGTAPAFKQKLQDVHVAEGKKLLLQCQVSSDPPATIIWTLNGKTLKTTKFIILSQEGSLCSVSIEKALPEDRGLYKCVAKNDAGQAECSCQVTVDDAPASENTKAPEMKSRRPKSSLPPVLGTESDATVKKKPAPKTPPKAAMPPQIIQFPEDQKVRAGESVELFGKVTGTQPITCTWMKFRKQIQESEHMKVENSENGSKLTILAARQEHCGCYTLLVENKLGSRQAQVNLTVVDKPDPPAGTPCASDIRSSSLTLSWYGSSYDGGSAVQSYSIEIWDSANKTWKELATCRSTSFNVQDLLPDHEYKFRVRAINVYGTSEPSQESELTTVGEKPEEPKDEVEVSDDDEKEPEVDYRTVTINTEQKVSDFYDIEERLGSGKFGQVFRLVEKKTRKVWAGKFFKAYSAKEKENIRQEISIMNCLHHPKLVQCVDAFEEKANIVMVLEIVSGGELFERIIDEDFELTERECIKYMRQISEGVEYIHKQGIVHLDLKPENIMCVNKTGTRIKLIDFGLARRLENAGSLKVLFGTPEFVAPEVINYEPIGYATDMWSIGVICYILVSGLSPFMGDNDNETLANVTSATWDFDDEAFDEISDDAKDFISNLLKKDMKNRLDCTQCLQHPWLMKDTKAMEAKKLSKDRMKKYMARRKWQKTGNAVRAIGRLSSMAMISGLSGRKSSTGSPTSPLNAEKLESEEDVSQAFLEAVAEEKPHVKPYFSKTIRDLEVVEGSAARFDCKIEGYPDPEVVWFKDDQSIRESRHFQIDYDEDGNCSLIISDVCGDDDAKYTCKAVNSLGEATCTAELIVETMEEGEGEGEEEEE

Kd [1]: 312 µM
Kd [2]: 257 µM
SMILES: O=c1[nH]c(=O)c2[nH]c(=O)[nH]c2[nH]1 [UA, uric acid]
